We go through eight compounds from ChEMBL document CHEMBL3994614, “Novel flavonolignan hybrid antioxidants: From enzymatic preparation to molecular rationalization” (Eur J Med Chem, 2017).

Active and inactive are the calls of the source. The calls are words filed in the database; no cut-off is given here.

Data set [1] is described as follows: Electro-oxidation activity at glassy carbon electrode in pH 5 acetate buffer at 50 uM by square-wave voltammetry.
A short description of data set [2]: Antiradical activity assessed as gallic acid equivalents of Foline-Ciocalteu reagent reducing capacity at 1 mM preincubated for 5 mins followed by Na2CO3 addition measured after 90 mins.
Data set [3] can be described thus: Antioxidant activity assessed as DPPH radical scavenging activity after 30 mins by spectrophotometric method. Type of data set: functional. In general terms: Loss of DPPH colour is used to gauge radical scavenging.
Data set [4] in a line: Antioxidant activity assessed as trolox equivalent of ABTS radical scavenging activity at 100 uM measured at >= 5 mins. Type of data set: functional.
In data set [5] the test system is Liver. Nature of the data set: Antioxidant activity against tert-butyl hydroperoxide-induced lipoperoxidation in rat liver microsomal membranes preincubated for 10 mins followed by tert-butyl hydroperoxide addition measured after 60 mins by TBARS assay. Type of data set: functional, cell membranes, Microsomal Membrane. In general terms: Liver microsomes are a subcellular fraction often used to study metabolism.

Data set [6] concerns Liver. Nature of the data set: Antioxidant activity against tert-butyl hydroperoxide-induced lipoperoxidation in rat liver microsomal membranes at 1 mM preincubated for 10 mins followed by tert-butyl hydroperoxide addition measured after 60 mins by TBARS assay relative to control. The following applies: Microsomal Membrane. It is filed as functional, cell membranes.
A short description of data set [7]: Antiradical activity assessed as gallic acid equivalents of Foline-Ciocalteu reagent reducing capacity at 1 mM preincubated for 5 mins followed by Na2CO3 addition measured after 90 mins in presence of L-ascorbic acid.
Data set [8] can be described thus: Antioxidant activity assessed as DPPH radical scavenging activity after 30 mins in presence of L-ascorbic acid by spectrophotometric method. Type of data set: functional.
Data set [9] can be described thus: Antioxidant activity assessed as trolox equivalent of ABTS radical scavenging activity at 100 uM measured at >= 5 mins in presence of L-ascorbic acid. Type of data set: functional.
For data set [10], the system named is Liver. Nature of the data set: Antioxidant activity against tert-butyl hydroperoxide-induced lipoperoxidation in rat liver microsomal membranes preincubated for 10 mins followed by tert-butyl hydroperoxide addition measured after 60 mins in presence of L-ascorbic acid by TBARS assay. It is filed as functional, cell membranes, Microsomal Membrane.
Data set [11] concerns HepG2. Nature of the data set: Cytoprotective activity against tert-butyl hydroperoxide-induced toxicity in human HepG2 cells assessed as cell viability at 5 uM pretreated for 1 hr followed by co-treatment with tert-butyl hydroperoxide for 3 hrs by MTT assay (reference value: 22%). Type of data set: functional.
Data set [12] has as its system HepG2. Nature of the data set: Cytoprotective activity against tert-butyl hydroperoxide-induced decrease in cell viability in human HepG2 cells at 5 uM pretreated for 1 hr followed by co-treatment with tert-butyl hydroperoxide for 3 hrs in presence of L-ascorbic acid by MTT assay. Type of data set: functional, cell-based. (In general: Tetrazolium dyes change colour on reduction, which living cells bring about.)

The test system of data set [13] is HepG2. Put plainly: Cytoprotective activity against tert-butyl hydroperoxide-induced toxicity in human HepG2 cells assessed as cell viability at 5 uM pretreated for 1 hr followed by tert-butyl hydroperoxide addition for 3 hrs by MTT assay (reference value: 16%). It is filed as functional.
Data set [14] deals with HepG2. Nature of the data set: Cytotoxicity against human HepG2 cells assessed as reduction in cell viability up to 10 uM after 4 hrs by MTT assay. The following applies: hepg2, 4 h. Type of data set: cell-based.
Data set [15] is described as follows: Electro-oxidation activity at glassy carbon electrode in pH 2 to 12 at 50 uM by square-wave voltammetry.
For data set [16], the system named is Liver. Nature of the data set: Antioxidant activity against tert-butyl hydroperoxide-induced lipoperoxidation in rat liver microsomal membranes at 50 uM preincubated for 10 mins followed by tert-butyl hydroperoxide addition measured after 60 mins by TBARS assay relative to control. It is filed as functional, cell membranes. The following applies: Microsomal Membrane.

Data set [17] can be described thus: Antiradical activity assessed as gallic acid equivalents of Foline-Ciocalteu reagent reducing capacity at 1 mM preincubated for 5 mins followed by Na2CO3 addition measured after 90 mins in presence of silybin.
A short description of data set [18]: Antioxidant activity assessed as DPPH radical scavenging activity after 30 mins in presence of silybin by spectrophotometric method. It is filed as functional.
Data set [19] can be described thus: Antioxidant activity assessed as trolox equivalent of ABTS radical scavenging activity at 100 uM measured at >= 5 mins in presence of silybin. It is filed as functional.
The test system of data set [20] is Liver. Nature of the data set: Antioxidant activity against tert-butyl hydroperoxide-induced lipoperoxidation in rat liver microsomal membranes preincubated for 10 mins followed by tert-butyl hydroperoxide addition measured after 60 mins in presence of silybin by TBARS assay. Type of data set: functional, cell membranes, Microsomal Membrane.
Data set [21] concerns HepG2. Put plainly: Cytoprotective activity against tert-butyl hydroperoxide-induced decrease in cell viability in human HepG2 cells at 5 uM pretreated for 1 hr followed by co-treatment with tert-butyl hydroperoxide for 3 hrs in presence of silybin by MTT assay. Type of data set: functional, cell-based.
Data set [22] in a line: Aqueous solubility of the compound in buffer solution. Type of data set: physicochemical.

Usually IC50 stands for the midpoint of a concentration-inhibition curve. As a reminder, the inhibition is the relative decrease from the control value, in per cent. With `COc1cc([C@H]2Oc3cc([C@H]4Oc5cc(O)cc(O)c5C(=O)[C@@H]4O)ccc3O[C@@H]2COC(=O)CCCCCCCCCCC(=O)OCCc2ccc(O)cc2)ccc1O`, the outcome in data set [1] was inactive. The Activity in data set [2] is 0.17 equiv; in data set [4], 0.33 equiv. In addition, the IC50 in [3] was 253 µM; with Liver [5], > 1000 µM. Besides, the inhibition in the data set on Liver [6] turned out to be 17%.
Consider `Cc1c(C)c2c(c(C)c1O)CCC(C)(CO)O2` (stereo not given), for which, in data set [3], the half-inhibitory concentration (IC50) came to 3.58 µM.
For `C=COC(=O)CCCCCCCCCCC(=O)OC=C`, in [1], the result was inactive.
Turning to `COc1cc(C2Oc3cc([C@H]4Oc5cc(O)cc(O)c5C(=O)[C@@H]4O)ccc3OC2CO)ccc1O` (stereo not given in full) [SILIBININ], the outcome (in data set [1]; with HepG2 [11]; in the data set with HepG2 [12]; in the data set with HepG2 [13]) was inactive. The Activity in data set [2] was 0.92 equiv; in data set [4] it was 0.78 equiv; in data set [7], 0.25 equiv; in data set [9] it was 0.42 equiv; in the data set on HepG2 [14] it was “Non-Toxic”. Also, the IC50 in data set [3] stood at 244 µM; with Liver [5], 77.1 µM; in [8], 2.94 µM; with Liver [10], 56.5 µM.
Consider `COc1cc([C@H]2Oc3cc([C@H]4Oc5cc(O)cc(O)c5C(=O)[C@@H]4O)ccc3O[C@@H]2COC(=O)CCCCCCCCCCC(=O)OC[C@H](O)[C@H]2OC(=O)C(O)=C2O)ccc1O`, for which the outcome in data set [1] and in [15] was Active. Besides, the Activity in data set [2] is 0.65 equiv; in data set [4] it was 1.32 equiv; in the data set on HepG2 [14], “Non-Toxic”. In addition, the results for the IC50 (in data set [3]; with Liver [5]) were 20.6 µM and 30.2 µM, respectively. Also, the results for the viability at 5 µM in the data set with HepG2 [11] (read-out: Activity) and in the data set on HepG2 [13] (read-out: Activity) were 43% and 27%, respectively.
Take `COc1cc([C@H]2Oc3cc([C@H]4Oc5cc(O)cc(O)c5C(=O)[C@@H]4O)ccc3O[C@@H]2COC(=O)CCCCCCCCCCC(=O)OCC2(C)CCc3c(C)c(O)c(C)c(C)c3O2)ccc1O` (stereo not given in full): the result in data set [1] was inactive. For the same compound, the Activity came to 0.15 equiv in data set [2] and 0.24 equiv in [4]. In addition, the values for the half-inhibitory concentration (IC50) (in data set [3]; in the data set with Liver [5]) were 3.5 µM and 72.9 µM, respectively.
`O=C1O[C@H]([C@@H](O)CO)C(O)=C1O` [ASCORBIC ACID]: the Activity is 0.51 equiv in data set [2]; 0.57 equiv in [4]; 0.25 equiv in [17]; 0.42 equiv in data set [19]; “Non-Toxic” in the data set with HepG2 [14]. For the same compound, the IC50 was 2.76 µM in [3], > 1000 µM with Liver [5], 2.94 µM in data set [18] and 56.5 µM in the data set with Liver [20]. The inhibition in the data set on Liver [6] is 13%; in the data set with Liver [16], 139%. The outcome in the data set on HepG2 [11], in the data set on HepG2 [21] and in the data set on HepG2 [13] was inactive.
Regarding `C=COC(=O)CCCCCCCCCCC(=O)OC[C@H]1Oc2ccc([C@H]3Oc4cc(O)cc(O)c4C(=O)[C@@H]3O)cc2O[C@@H]1c1ccc(O)c(OC)c1`, in data set [1], the outcome was inactive. Also, the solubility entry in data set [22] is reported as “Insoluble”. The Activity in [2] worked out at 0.15 equiv; in data set [4], 0.93 equiv. Besides, the IC50 in data set [3] was 372 µM; in the data set with Liver [5], 111 µM.
